Test results reported in patent US20100239635A1, “DRUG DELIVERY MEDICAL DEVICE” (MICELL TECHNOLOGIES, INC., priority 2009, published 2010).

How the values were obtained:
[1] = given intravesically in doses as high as 1 billion units; cited from earlier work
bladder cancer = conditions: optimized schedule: 40 mg/20 cc (compared with 20 mg/20 cc), overnight dehydration, complete bladder emptying, alkalinization with sodium bicarbonate; cited from earlier work
[2] = cited from earlier work
[3] = parameters: dose or concentration left out as unconfirmed; conditions: estradiol release, as its 3-acetate ester; cited from earlier work
[4] = In vivo study of coating and drug transfer from a stent, porcine coronary artery model; parameters: species or system Yucatan pig; conditions: for amount of drug detected in the arterial tissue: stent as in Example 1
Method: Another sample of the coated stent was prepared for in vivo evaluation in a porcine coronary artery model using the Yucatan pig. Subjects were initially given 650 mg acetylsalicylic acid and 300 mg Plavix. Maintenance doses of 81 mg acetylsalicylic acid and 75 mg Plavix were administered. The target ACT (activated clotting time) for the procedure was about 250 seconds. Stent oversizing in relation to the artery was about 10-20%. The preparation of the sirolimus-coated stent was the same as described in Example 1 and used for the in vitro deployment into tubing, except that the device was sterilized using ETO prior to implantation into the animal.
The bulk concentration of drug was measured in the arterial tissue surrounding the implanted stent at 1, 3, 7, 14, and 28 days after implant, and provided a quantitative measure of the high efficiency of transfer of drug into the therapeutic site using devices and methods of the invention. The amount of drug that was detected in the arterial tissue was as follows: 1 day after implant, ˜6 μg; 3 days after implant, ˜16 μg; 7 days after implant, ˜30 μg; 14 days after implant, ˜30 μg; 28 days after implant, ˜13 μg. Peak tissue concentration of sirolimus of ˜30 μg at 14 days after implant was representative of approximately ⅙^th of the total drug that had been loaded on the stent. Note that some drug likely metabolized or diffused out of the arterial tissue into other areas of the body.

Molecule: Interferon Alpha 2b
- dose-limiting side effects [1]: without dose-limiting side effects

Molecule: CO[C@@]12[C@H](COC(N)=O)C3=C(C(=O)C(C)=C(N)C3=O)N1C[C@@H]1N[C@@H]12 [Mitomycin C, mitomycin C]
- recurrence (bladder cancer): nearly cut in half
- stability in acid urine [2]: inactivated

Molecule: C[C@]12CC[C@@H]3c4ccc(O)cc4CC[C@H]3[C@@H]1CC[C@@H]2O [estradiol]
- circulating plasma concentration of the drug [3]: 300 pmol/L

Molecule: CO[C@H]1C[C@@H]2CC[C@@H](C)[C@@](O)(O2)C(=O)C(=O)N2CCCC[C@H]2C(=O)O[C@H]([C@H](C)C[C@@H]2CC[C@@H](O)[C@H](OC)C2)CC(=O)[C@H](C)/C=C(\C)[C@@H](O)[C@@H](OC)C(=O)[C@H](C)C[C@H](C)/C=C/C=C/C=C/1C [sirolimus]
- amount of drug detected in the arterial tissue ([4]; 1 day after implant): ~6 µg
- amount of drug detected in the arterial tissue ([4]; 3 days after implant): ~16 µg
- amount of drug detected in the arterial tissue ([4]; 7 days after implant): ~30 µg
- amount of drug detected in the arterial tissue ([4]; 14 days after implant): ~30 µg
- amount of drug detected in the arterial tissue ([4]; 28 days after implant): ~13 µg
- Peak tissue concentration of sirolimus ([4]; at 14 days after implant): ~30 µg
- peak tissue amount as fraction of the total drug loaded on the stent ([4]; at 14 days after implant): approximately ⅙
